This passage reports IC50 and EC50 results from ChEMBL document CHEMBL3396962, “Design and synthesis of N-methylpyrimidone derivatives as HIV-1 integrase inhibitors” (Bioorg Med Chem, 2015).

Bounds are passed on as bounds.

Assay [1] deals with Human immunodeficiency virus type 1 integrase (Human immunodeficiency virus 1, UniProt Q7ZJM1). Kind of assay: Inhibition of HIV-1 integrase after 1 hr by strand transfer activity assay.
Assay [2] has as its system Human immunodeficiency virus 1. In words: Antiviral activity against HIV-1 infected in human TZM-bl cells after 40 to 48 hrs by beta-galactosidase assay. In kind it is functional, organism-based. The following applies: Human immunodeficiency virus 1, TZM-bl.

Sequence of Human immunodeficiency virus type 1 integrase (Q7ZJM1 whole entry): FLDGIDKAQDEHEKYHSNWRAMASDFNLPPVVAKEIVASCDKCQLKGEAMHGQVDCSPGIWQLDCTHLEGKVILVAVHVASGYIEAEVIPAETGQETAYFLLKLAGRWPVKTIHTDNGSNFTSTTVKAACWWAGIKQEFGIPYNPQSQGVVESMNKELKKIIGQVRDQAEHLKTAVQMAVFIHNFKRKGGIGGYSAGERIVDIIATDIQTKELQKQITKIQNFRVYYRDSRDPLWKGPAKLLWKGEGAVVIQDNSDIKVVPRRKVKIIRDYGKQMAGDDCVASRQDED

The IC50 is the concentration that gives 50% inhibition. Higher therefore signals lower potency. What is called EC50 is the concentration that produces a half-maximal response. Regarding `COc1c(C(=O)N2CCN(CCCNC(=O)c3cc(O)c(O)c(O)c3)CC2)nc(Cc2ccccc2)n(C)c1=O`, in assay [1], the IC50 came to 0.9 µM. The molecule further displayed an EC50 in assay [2] of 1.13 µM.
The molecule `COc1c(C(=O)N2CCN(CCCNC(=O)c3cc(O)c(O)c(O)c3)CC2)nc(Cc2ccc(Cl)cc2)n(C)c1=O` had a concentration for half-maximal inhibition (IC50) in assay [1] of 2.4 µM. The molecule further registered a 50% effective concentration (EC50) in assay [2] of 4.27 µM.
The corresponding values for `COc1c(C(=O)N2CCN(CCCNC(=O)c3cc(O)c(O)c(O)c3)CC2)nc(Cc2ccc(F)cc2)n(C)c1=O` are 18.9 µM and 4.39 µM.
Regarding `COc1c(C(=O)N2CCN(CCCNC(=O)c3cc(O)c(O)c(O)c3)CC2)nc(Cc2ccc(C)cc2)n(C)c1=O`, the IC50 in assay [1] amounted to 3.5 µM. The EC50 in assay [2] came out at 2.76 µM.
The molecule `COc1c(C(=O)N2CCN(CCCNC(=O)c3cc(O)c(O)c(O)c3)CC2)nc(Cc2ccc(Cl)c(Cl)c2)n(C)c1=O` yielded an IC50 in assay [1] of 22.4 µM.
Still for that read-out and setting: the same measure for `COc1c(C(=O)N2CCN(CCNC(=O)c3cc(O)c(O)c(O)c3)CC2)nc(Cc2ccccc2)n(C)c1=O`: 18.6 µM; for `COc1c(C(=O)N2CCN(CCNC(=O)c3cc(O)c(O)c(O)c3)CC2)nc(Cc2ccc(F)cc2)n(C)c1=O`: 2.5 µM.
As for `COc1c(C(=O)N2CCN(CCNC(=O)c3cc(O)c(O)c(O)c3)CC2)nc(Cc2ccc(O)cc2)n(C)c1=O`, half-maximal inhibition in assay [1] (IC50) required 0.7 µM.
For `COc1c(C(=O)N2CCN(CCCNC(=O)c3ccc(O)c(O)c3)CC2)nc(Cc2ccccc2)n(C)c1=O`, the concentration for half-maximal inhibition (IC50) in assay [1] was > 100 µM.
Same read-out and setting: the same measure for `COc1c(C(=O)N2CCN(CCCNC(=O)c3ccc(O)c(O)c3)CC2)nc(Cc2ccc(F)cc2)n(C)c1=O`: > 100 µM; for `COc1c(C(=O)N2CCN(CCCNC(=O)c3ccc(O)c(O)c3)CC2)nc(Cc2ccc(O)cc2)n(C)c1=O`: > 100 µM.
